{
  "source": "patent US9775844B2",
  "about": "“Heterocyclic compounds and uses thereof” (Infinity Pharmaceuticals, Inc., priority 2014, dated 2017)",
  "key": {"[1]": {"test": "Hepatocyte stability (Hep t1/2)", "assay_type": "in vitro ADME", "conditions": "hepatocytes, all species (incl rat); read-out: M, C, D, H Hep (t1/2, min)"}, "Oral exposure in the dog": {"test": "Oral exposure in the dog", "assay_type": "in vivo"}, "[2]": {"system": "M2 macrophage markers VEGF and ARG-1", "test": "M2 macrophage marker expression with or without PDL-1 antibody (FIG. 42)"}, "[3]": {"test": "Expected oral half-life in humans (from animal data)", "conditions": "human, based on rat, dog, monkey data"}, "[4]": {"system": "CD11b+ myeloid cells in 4T1 tumors", "test": "Immunohistochemistry of CD11b / CD68 myeloid cells in 4T1 tumors", "assay_type": "in vivo, mouse", "conditions": "vs vehicle/controls", "experimental": "Immunohistochemistry was performed to determine the distribution of immune cells within the tumor. In particular, CD11b myeloid cells were examined, as were regulatory vs. effector T cells (CD3, CD4, CD8, FoxP3). Briefly, IHC for CD11b or CD68+ was performed as follows. CD11b antibodies were available from Abcam, clone I-70, Catalong # ab 8878. CD68 antibodies were available from Abcam, clone FA-11, catalog # ab 53444. Tissues were fixed in cold methanol, air-dried, and then stained using a Res IHC Omni-UltraMap HRP XT protocol.\nWithout being bound by a particular theory, the decrease in the pro-tumorigenic tumor associated myeloid cells can result in activation of cytotoxic T-cells and anti-tumor immunity. […] When the images were quantified as CD11b+ cells per total viable cells (FIG. 37E), a Student t-Test p-value of 0.0355 was obtained when comparing the Compound BB-treated cells to controls. When the images were quantified as CD11b+ stained area per total visible area (FIG. 37F), a Student t-Test p-value of 0.0441 was obtained when comparing the Compound BB-treated cells to controls. […] When the images were quantified as CD11b+ cells per total viable cells (FIG. 37G), a Student t-Test p-value of 0.0864 (d16) or 0.3967 (d22) was obtained when comparing the Compound BB-treated cells to controls. […]"}, "[5]": {"system": "Myeloid Derived Suppressor Cell", "test": "Myeloid Derived Suppressor Cell differentiation assay", "assay_type": "cell-based", "conditions": "MDSC differentiation assay"}, "[6]": {"test": "Unbound concentrations in tumor and plasma, LLC model, 12 days daily oral administration", "assay_type": "in vivo, mouse", "conditions": "Plasma, 12 days daily oral administration in NMP solution, read-out: Free Conc", "description": "Below is a table of details:"}, "4T1": {"system": "4T1", "test": "4T1 breast cancer model"}, "Plasma protein binding": {"test": "Plasma protein binding", "assay_type": "in vitro ADME", "conditions": "all species, read-out: PPB % free @ 1 uM"}, "[7]": {"system": "differentiation of myeloid cells into M2 TAMs", "test": "Murine M2 TAM differentiation (ARG1 levels)", "assay_type": "cell-based, mouse", "conditions": "FIG. 22A/22B", "description": "High ARG1 (Arginase-1) levels indicate that myeloid cells are differentiating into M2 macrophages, so lower ARG1 levels relative to a control indicate interference with differentiation into M2 macrophages. Expression of Arginase-1 depletes the tumor microenvironment of arginine, thereby promoting T cell death and NK cell inhibition. Schmid et. al., Proceedings: AACR 103rd Annual Meeting 2012, Cancer Research: Apr. 15, 2012; Volume 72, Issue 8, Supplement 1. […] M2 TAMs promote cancer cell survival (FIG. 23).\nM2 macrophages can be produced as follows. Sacrifice mouse and collect femur and tibias Immerse the bones on a petri dish in 70% ethanol for 1-2 min, then remove the bones and let the ethanol dry off for 3-4 min. Cut off a very small portion of the end of the bones to make an easy access for needle insert. Using a 27 g needle filled will media containing DMEM+10% FBS+1% Pen/Strep (complete DMEM), expel the bone marrow from both ends of the bones into a 15 ml petri dish. Pipette the bone marrow to dissociate the bone marrow cells. Centrifuge and add 1× Red Cell lysis buffer to the pellet. Let RBC lyse for 2 min then add equal amount of complete DMEM and centrifuge. The bone marrow from one mouse can be divided into 2 petri dishes containing 7 ml of BMM media (DMEM+20% FBS+1% Pen/Strep+50 ng/ml M-CSF). […] The cells are ready for polarization on day 6. […]"}, "GSH Adduct Formation": {"test": "GSH Adduct Formation", "assay_type": "in vitro ADME"}, "[8]": {"test": "Cellular membrane permeability", "assay_type": "in vitro ADME", "description": "These properties indicate the compound's suitability for in vivo administration."}, "[9]": {"system": "CXCL12 stimulated pAKT in T cells and monocytes", "test": "Ex vivo whole blood CXCL12 stimulation of phospho-AKT, LLC-bearing mice", "assay_type": "in vivo, mouse", "conditions": "12 days QD PO, 2 h post dose", "experimental": "C57 BL/6 Albino mice were implanted with 1×10^6 cells in a SC injection in the hind flank. The cell implant material was generated from brei that was passaged from mouse to mouse. Treatment started when tumors were between 160-180 mm^3 Mice were dosed for 12 days, QD, PO with vehicle, 15, 7.5 or 3 mg/kg. On day 12 mice were dosed and terminal blood was collected 2 h post dose by cardiac stick collection. Blood was placed in EDTA K2 collection tube and stored at room temp for PD analysis.\nBlood from each animal was aliquotted into 2 plates and warmed to 37° C. degrees. PBS was added to one plate as an unstimulated control. Murine CXCL12/SDF-1 was added to the second plate to a final concentration of 800 ng/mL and plate was returned to the 37° C. degree block. After 2 minutes of incubation, blood was lysed and fixed using paraformaldehyde. Samples were washed and frozen until flow cytometric analysis. T cells were gated using an antibody to CD3 and monocytes were gated as LY6G^− LY6C^high. Intracellular pAKT […] was measured and percent positive was used for graphing."}},
  "note": "Where two headings read alike, the source gives them in different places.",
  "data": [
    {"smiles": "C[C@H](NC(=O)c1c(N)nn2cccnc12)c1cc2cccc(C#Cc3cnn(C)c3)c2c(=O)n1-c1ccccc1", "note": "[Compound BB]", "values": [
      {"measurement": "half-life", "setting": "[1]", "result": "> 240", "unit": "min"},
      {"measurement": "oral exposure", "setting": "Oral exposure in the dog", "result": "high"},
      {"measurement": "M2 macrophage marker ARG-1", "setting": "[2]", "result": "reduced"},
      {"measurement": "M2 macrophage marker VEGF", "setting": "[2]", "result": "reduced"},
      {"measurement": "half-life", "setting": "[3]", "result": "10 to 13", "unit": "h"},
      {"measurement": "CD11b+ cells in 4T1 tumors (IHC)", "setting": "[4]", "result": "statistically significant reduction in CD11b+ cells"},
      {"measurement": "ARG1", "setting": "[5]", "result": "suppresses"},
      {"measurement": "VEGF", "setting": "[5]", "result": "suppresses"},
      {"measurement": "concentration at 2 h", "setting": "[6]; C57 Albino, mouse, 3 mg/kg, 2 h", "result": 25.9, "unit": "nM"},
      {"measurement": "concentration at 2 h", "setting": "[6]; C57 Albino, mouse, 7.5 mg/kg, 2 h", "result": 99, "unit": "nM"},
      {"measurement": "concentration at 2 h", "setting": "[6]; C57 Albino, mouse, 15 mg/kg, 2 h", "result": 157, "unit": "nM"},
      {"measurement": "concentration at 2 h", "setting": "[6]; 3 mg/kg, Trough", "result": 0.75, "unit": "nM"},
      {"measurement": "concentration at 2 h", "setting": "[6]; 7.5 mg/kg, Trough", "result": 8.99, "unit": "nM"},
      {"measurement": "concentration at 2 h", "setting": "[6]; 15 mg/kg, Trough", "result": 8.39, "unit": "nM"},
      {"measurement": "tumor growth, orthotopic 4T1 breast cancer model", "setting": "4T1; 7.5 mg/kg PO once daily, FIG. 33A", "result": "reduced tumor growth"},
      {"measurement": "total luciferase flux, orthotopic 4T1 breast cancer model", "setting": "4T1; 7.5 mg/kg PO once daily, FIG. 33B", "result": "reduced total luciferase flux"},
      {"measurement": "tumor growth, 4T1 model, alone or with chemotherapy", "setting": "4T1; Compound BB 15 mg/kg PO QD 2 weeks, 5-FU 50 mg/kg, docetaxel 33 mg/kg, paclitaxel 10 mg/kg IP", "result": "reduction in tumor growth"},
      {"measurement": "anti-tumor activity, subcutaneous 4T1 breast cancer model", "setting": "4T1; single agent, FIG. 34", "result": "single agent activity"},
      {"measurement": "maintenance of anti-tumor effect after discontinuation of treatment", "setting": "4T1; subcutaneous 4T1", "result": "at least 6 days"},
      {"measurement": "fraction unbound at 1 uM", "setting": "Plasma protein binding", "result": "0.01 to 0.05"},
      {"measurement": "M2 TAM differentiation (ARG1 levels)", "setting": "[7]", "result": "inhibited M2 TAM differentiation much more effectively than PI3K-δ inhibitor"},
      {"measurement": "GSH Adduct Formation", "setting": "GSH Adduct Formation", "result": "Neg"},
      {"measurement": "cellular membrane permeability", "setting": "[8]", "result": "high cellular membrane permeability"},
      {"measurement": "Papp [10−6 cm/s] @ 10 uM", "setting": "[8]; 10 uM", "result": "High"},
      {"measurement": "ex vivo whole blood CXCL12 stimulation of phospho-AKT in T cells", "setting": "[9]", "result": "inhibits"},
      {"measurement": "ex vivo whole blood CXCL12 stimulation of phospho-AKT in monocytes", "setting": "[9]", "result": "inhibits"}
    ]}
  ]
}
